Reference: patent US4268505A, “Pharmaceutical composition comprising a nitrogen-containing polysaccharide and an antibiotic agent, and a method of treating an infectious disease therewith” (priority 1979, dated 1981)

Key:
Escherichia coli = assay: Minimum growth inhibiting concentration, agar plate method; type: cell-based; conditions: for Minimum growth inhibiting concentration: strain resistant to the respective drug
Description: (§1) The drug-resistant strains of bacterial species were obtained in the manner described below according to the concentration gradient plate culture (see "Chemotherapeutics and Resistant Bacteria", 1970, By Chikara Watanabe, Asakura Shoten).
(§2) The agar plates with drug concentration gradient ranging from 10 to 100 μg/ml were prepared, and each strain of the bacterial species to be tested was streaked or smeared. These plates were kept at 37° C. for several days and the colony formed in the high concentration area was isolated and again similarly inoculated to the plates. Such operation was repeated several times to obtain the bacterial strains resistant to the respective drugs.
(§3) The drug sensitivity of the drug-resistant strains and that of the original strains (sensitive strains) were compared by way of the minimum growth inhibiting concentration (hereinafter abbreviated as MIC) according to the Standard Method of the Japanese Chemotherapeutical Association (see "Chemotherapy" Vol. 22, No. 6, 1126 (1974), by MIC Determination Method Reform Committee). More specifically, double diluted systems of each drug were prepared and they were mixed with the heart-infusion agar medium (Nippon Eiyo Kagaku Co., Ltd.) to form the agar plates. Then a loopful of each strain, which had been cultured at 37° C. in Trypto-soy bouillon (Nippon Eiyo Kagaku Co., Ltd.) for 18 hr. was smeared on each the plate, and after culturing for 18 hr. at 37° C., the growth of the strain on each plate was examined.
MIC has apparently been reduced to half the level or less before addition of the present substance as will be seen in Table 3 of EXAMPLE 1. The amount of the present substance added is more than 10 μg/ml, preferably more than 100 μg/ml. The pH of the medium was maintained at 7.2±0.1 so that MIC would not be affected by pH of the medium.
Specimens of the drug-resistant bacterial strain were obtained according to the aforementioned concentration-gradient plate culture by using Staphylococcus aureus, Streptococcus faecalis, Escherichia coli, Salmonella enteritidis, Klebsiella pneumoniae and Pseudomonas aeruginosa. The MICs of the original bacterial strains and those of the bacterial strains which have developed resistance to the respective antibiotics are summarized in Table 2.

[1] = system: cephaloridine-resistant strain of Proteus mirabilis; assay: Therapeutical treatment of mice infected with cephaloridine-resistant Proteus mirabilis (Example 11); type: in vivo, male ICR-JCL mice; conditions: only cephaloridine 80 mg/kg i.p., 7th day
Description: Similar experiments of therapeutical treatment as in Example 9 was performed by using the present substance obtained by the procedures described in Example 1.
A cephaloridine-resistant strain of Proteus mirabilis obtained by the procedures described in Example 1 was inoculated into male ICR-JCL mice comprising 20 animals at a rate of 5×10^8 cells/animal. After 2 hours of the inoculation 80 mg/kg of cephalotidine was administered intraperitoneally into each of 10 mice (of 20 mice), and 50 mg/kg of the present substance and 80 mg/kg of cephaloridine were almost simultaneously administered to each of another 10 mice (of 20 mice) intraperitoneally.
After keeping the animals under usual conditions for 6 days, their rate of survival were observed on 7th day to find: […]

[2] = system: aminobenzylpenicillin-resistant strain of Klebsiella pneumoniae; assay: Therapeutical treatment of mice infected with aminobenzylpenicillin-resistant Klebsiella pneumoniae (Example 12); type: in vivo, male ICR-JCL mice; conditions: only aminobenzylpenicillin 100 mg/kg oral, 7th day
Description: Similar experiments as in Example 9 were performed using the present substance obtained by the procedures described in Example 1.
An aminobenzylpenicillin-resistant strain of Klebsiella pneumoniae obtained by the procedures described in Example 1 was inoculated intraperitoneally into two groups (one group comprising 10 animals) of male ICR-JCL mice at a rate of 1×10^8 cells/mouse.
After 2 hours of the inoculation, 100 mg/kg of aminobenzyl penicillin was orally administered to each mouse of one group, and 1,000 mg/kg of the present substance simply admixtured with 100 mg/kg of aminobenzyl penicillin were orally administered to each mouse of another group. After keeping the mice under usual conditions, the rate of survival of each group was observed on 7th day with the results: […]

Proteus mirabilis = assay: Minimum growth inhibiting concentration, agar plate method; type: cell-based
Description: as §1, §2, §3
The amount of the present substance added is more than 10 μg/ml, preferably more than 100 μg/ml. The pH of the medium was maintained at 7.2±0.1 so that MIC would not be affected by pH of the medium.
Specimens of the drug-resistant bacterial strain were obtained according to the aforementioned concentration-gradient plate culture by using Staphylococcus aureus, Streptococcus faecalis, Escherichia coli, Salmonella enteritidis, Klebsiella pneumoniae and Pseudomonas aeruginosa.

[3] = system: aminobenzylpenicillin-resistant strain of Enterobacter aerogenes; assay: Therapeutical treatment of mice infected with aminobenzylpenicillin-resistant Enterobacter aerogenes (Example 13); type: in vivo, male ICR-JCL mice; conditions: only aminobenzylpenicillin 100 mg/kg oral, 7th day
Description: After keeping the mice for 6 days under usual conditions, their rate of survival was determined on 7th day.

[4] = strain resistant to the respective antibiotic (Table 2)

SMILES | Minimum growth inhibiting concentration (MIC) (Escherichia coli; original strain) [µg/mL] | Minimum growth inhibiting concentration (MIC) (Escherichia coli; [4]) [µg/mL] | Minimum growth inhibiting concentration (Escherichia coli; present substance added at 10 μg/ml) [µg/mL] | Minimum growth inhibiting concentration (Escherichia coli; present substance not added (Table 3)) [µg/mL] | rate of survival [1] [%] | rate of survival [2] [%] | Minimum growth inhibiting concentration (MIC) (Proteus mirabilis; original strain) [µg/mL] | Minimum growth inhibiting concentration (MIC) (Proteus mirabilis; [4]) [µg/mL] | Minimum growth inhibiting concentration (Proteus mirabilis; strain resistant to the respective drug, present substance not added (Table 3)) [µg/mL] | rate of survival [3] [%]
O=C(Cc1cccs1)N[C@@H]1C(=O)N2C(C(=O)[O-])=C(C[n+]3ccccc3)CS[C@H]12 [CE, Cephaloridine] | 3.1 | 25 | 12.5 | 25 | 60 |  |  |  |  | 
CC1(C)S[C@@H]2[C@H](NC(=O)[C@H](N)c3ccccc3)C(=O)N2[C@H]1C(=O)O [AP, Aminobenzylpenicillin] |  |  |  |  |  | 40 | 0.8 | 25 | 25 | 70
